Experimental data: US10183954B2, “Oxathiolane carboxylic acids and derivatives for the treatment and prophylaxis of virus infection” (Hoffmann-La Roche Inc., priority 2016, dated 2019)

Tests used:
human TLR7 = human TLR7 (Homo sapiens (Human), UniProt Q9NYK1); assay: HEK293-Blue-hTLR-7 cells assay (SEAP reporter); assay type: cell-based; conditions: 20 hours incubation
Text: HEK293-Blue-hTLR-7 Cells Assay: A stable HEK293-Blue-hTLR-7 cell line was purchased from InvivoGen (Cat.#: hkb-htlr7, San Diego, Calif., USA). These cells were designed for studying the stimulation of human TLR7 by monitoring the activation of NF-κB. A SEAP (secreted embryonic alkaline phosphatase) reporter gene was placed under the control of the […] minimal promoter fused to five NF-κB and AP-1-binding sites. The SEAP was induced by activating NF-κB and AP-1 via stimulating HEK-Blue hTLR7 cells with TLR7 ligands. Therefore the reporter expression was regulated by the NF-κB promoter upon stimulation of human TLR7. The cell culture supernatant SEAP reporter activity was determined using QUANTI-Blue™ kit (Cat.#: rep-qb 1, Invivogen, San Diego, Ca, USA) at a wavelength of 640 nm, a detection medium that turns purple to blue in the presence of alkaline phosphatase. HEK293-Blue-hTLR7 cells were incubated at a density of 250,000˜450,000 cells/mL in a volume of 180 μL in a 96-well plate in Dulbecco's Modified Eagle's medium (DMEM) containing 4.5 g/l glucose, 50 U/ml penicillin, […], […], 2 mM L-glutamine, 10% (v/v) heat-inactivated fetal bovine serum for 24 h. Then the HEK293-Blue-hTLR-7 cells were incubated with addition of 20 μL test compound in a serial dilution in the presence of final DMSO at 1% and perform incubation under 37° C. in a CO2 incubator for 20 hours. Then 20 μL of the supernatant from each well was incubated with 180 μL Quanti-blue substrate solution at 37° C. for 1-3 hours and the absorbance was read at 620˜655 nm using a spectrophotometer.

human hepatocytes = assay: Metabolic conversion of prodrugs in human hepatocytes; assay type: in vitro ADME
Text: Metabolism of Prodrugs: Compounds of Formula (II) A study was undertaken to evaluate the metabolic conversion of prodrugs, compounds of formula (II) or (IIa), to compounds of formula (I) or (Ia) of the present invention. The prodrugs, compounds of formula (II) or (IIa), can be metabolized to the active compound of formula (I) or (Ia) and other compounds of the invention in the body if they are served as prodrugs. Hepatocytes are often used to assess the degree of metabolic conversion of prodrugs in the body of animal or human. A study was undertaken to evaluate the metabolic conversion of prodrug Example 15, to the corresponding active form, Example 5-P1, in the presence of human hepatocytes. The formation of active form, Example 5-P1, was monitored in the study. For comparison, the metabolic conversion of famciclovir to penciclovir was also assessed. Cryopreserved hepatocytes plating medium (Cat.#: PY-HMD-03) was purchased from RILD Research Institute for Liver Diseases (Shanghai) Co. Ltd. Cryopreserved human hepatocyte (Cat.#: X008005, Lot#:VRR) was purchased from BioreclamationIVT (Baltimore, Md.). The stock hepatocyte suspension was prepared from cryopreserved hepatocytes in plating medium at the concentration of 1.8×10^6 cells/mL. […] The compounds were quantified on an API5500 […] instrument in the ESI-Positive MRM mode.

Sequence of human TLR7 (Q9NYK1 27-1049): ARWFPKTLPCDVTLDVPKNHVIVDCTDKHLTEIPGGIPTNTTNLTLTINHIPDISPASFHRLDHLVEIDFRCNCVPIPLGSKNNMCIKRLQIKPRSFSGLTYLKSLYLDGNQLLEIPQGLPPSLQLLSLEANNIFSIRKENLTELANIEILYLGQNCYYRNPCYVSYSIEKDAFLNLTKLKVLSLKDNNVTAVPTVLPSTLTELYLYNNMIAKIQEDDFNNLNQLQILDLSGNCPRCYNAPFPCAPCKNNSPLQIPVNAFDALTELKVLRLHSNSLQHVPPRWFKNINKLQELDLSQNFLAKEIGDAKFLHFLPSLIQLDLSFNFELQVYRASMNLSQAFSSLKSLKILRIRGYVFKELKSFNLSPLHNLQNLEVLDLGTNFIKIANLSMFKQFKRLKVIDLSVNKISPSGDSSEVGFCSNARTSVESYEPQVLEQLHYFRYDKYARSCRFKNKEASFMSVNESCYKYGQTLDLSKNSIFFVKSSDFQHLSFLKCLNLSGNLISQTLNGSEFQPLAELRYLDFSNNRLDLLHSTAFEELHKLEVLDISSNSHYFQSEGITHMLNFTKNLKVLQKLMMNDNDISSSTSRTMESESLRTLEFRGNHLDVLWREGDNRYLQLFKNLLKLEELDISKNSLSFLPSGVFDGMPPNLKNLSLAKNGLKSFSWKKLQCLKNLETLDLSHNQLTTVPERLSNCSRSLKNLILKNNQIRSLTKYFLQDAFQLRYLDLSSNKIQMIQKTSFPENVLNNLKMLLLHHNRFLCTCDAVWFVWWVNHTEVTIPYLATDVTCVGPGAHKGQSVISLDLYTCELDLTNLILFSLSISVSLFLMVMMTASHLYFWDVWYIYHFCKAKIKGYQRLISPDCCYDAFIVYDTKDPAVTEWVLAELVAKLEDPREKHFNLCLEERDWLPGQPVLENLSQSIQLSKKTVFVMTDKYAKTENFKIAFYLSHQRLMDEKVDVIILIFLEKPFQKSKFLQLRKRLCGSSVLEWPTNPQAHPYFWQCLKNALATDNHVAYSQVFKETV

Row | EC50 (human TLR7) | Structure (SMILES) | Metabolic conversion of prodrug to active metabolite (human hepatocytes)
1 | 24 µM | CC[C@H](O)[C@H]1O[C@@H](n2c(=O)sc3c(=O)[nH]c(N)nc32)[C@H](CC(=O)O)S1 [Example 5-P1, 2-[(2S,4S,5R)-5-(5-amino-2,7-dioxo-6H-thiazolo[4,5-d]pyrimidin-3-yl)-2-[(1S)-1-hydroxypropyl]-1,3-oxathiolan-4-yl]acetic acid] | 
2 | 317 µM | COC(=O)CC1SC(CO)OC1n1c(=O)sc2c(=O)[nH]c(N)nc21 (stereo not drawn) [Example 1-P1, methyl 2-[(trans-2,4-trans-4,5)-5-(5-amino-2,7-dioxo-6H-thiazolo[4,5-d]pyrimidin-3-yl)-2-hydroxymethyl)-1,3-oxathiolan-4-yl]acetate] | 
3 | 469 µM | CN(C)C(=O)CC1SC(CO)OC1n1c(=O)sc2c(=O)[nH]c(N)nc21 (stereo not drawn) [Example 3-P1, 2-[(trans-2,4-trans-4,5)-5-(5-amino-2,7-dioxo-6H-thiazolo[4,5-d]pyrimidin-3-yl)-2-(hydroxymethyl)-1,3-oxathiolan-4-yl]-N,N-dimethyl-acetamide] | 
4 | 15 µM | COC(=O)CC1SC([C@@H](O)C2CC2)OC1n1c(=O)sc2c(=O)[nH]c(N)nc21 (single isomer, unassigned) [Example 13-P3] | 
5 | 23 µM | C[C@H](O)C1OC(n2c(=O)sc3c(=O)[nH]c(N)nc32)C(CC(=O)O)S1 (single isomer, unassigned) [Example 10-P3] | 
6 | 28 µM | CC[C@H](O)[C@H]1O[C@@H](n2c(=O)sc3c(=O)[nH]c(N)nc32)[C@H](CC(=O)N(C)C)S1 [Example 7-P1, 2-[(2S,4S,5R)-5-(5-amino-2,7-dioxo-6H-thiazolo[4,5-d]pyrimidin-3-yl)-2-[(1S)-1-hydroxypropyl]-1,3-oxathiolan-4-yl]-N,N-dimethyl-acetamide] | 
7 | 321 µM | CCCC[C@H](O)C1OC(n2c(=O)sc3c(=O)[nH]c(N)nc32)C(CC(=O)O)S1 (single isomer, unassigned) [Example 11-P3] | 
8 | 23 µM | CC[C@H](O)[C@H]1O[C@@H](n2c(=O)sc3c(=O)[nH]c(N)nc32)[C@H](CC(=O)NC)S1 [Example 6-P1, 2-[(2S,4S,5R)-5-(5-amino-2,7-dioxo-6H-thiazolo[4,5-d]pyrimidin-3-yl)-2-[(1S)-1-hydroxypropyl]-1,3-oxathiolan-4-yl]-N-methyl-acetamide] | 
9 | 144 µM | Nc1nc2c(sc(=O)n2[C@@H]2O[C@H](CO)S[C@H]2CC(=O)O)c(=O)[nH]1 (relative stereo) [Example 2-P1, 2-[(trans-2,4-trans-4,5)-5-(5-amino-2,7-dioxo-6H-thiazolo[4,5-d]pyrimidin-3-yl)-2-(hydroxymethyl)-1,3-oxathiolan-4-yl]acetic acid] | 

Further lines, the compound ahead of its results:

Row | Structure (SMILES) | EC50 (human TLR7) | Metabolic conversion of prodrug to active metabolite (human hepatocytes)
10 | CC[C@H](OC(=O)c1ccccc1)[C@H]1O[C@@H](n2c(=O)sc3cnc(N)nc32)[C@H](CC(=O)OC)S1 [Example 15, [(1S)-1-[(2S,4S,5R)-5-(5-amino-2-oxo-thiazolo[4,5-d]pyrimidin-3-yl)-4-(2-methoxy-2-oxo-ethyl)-1,3-oxathiolan-2-yl]propyl]benzoate] |  | metabolized to yield the corresponding active metabolites
11 | CC[C@H](O)[C@H]1O[C@@H](n2c(=O)sc3c(=O)[nH]c(N)nc32)[C@H](CC(=O)N2CCOCC2)S1 [Example 8-P1, 5-amino-3-[(2S,4S,5R)-2-[(1S)-1-hydroxypropyl]-4-(2-morpholino-2-oxo-ethyl)-1,3-oxathiolan-5-yl]-6H-thiazolo[4,5-d]pyrimidine-2,7-dione] | 2.5 µM | 
12 | CC(=O)OCC(CCn1cnc2cnc(N)nc21)COC(C)=O [Famciclovir, famciclovir, reference compound] |  | metabolized to yield the corresponding active metabolites
13 | C=CC[C@H](O)C1OC(n2c(=O)sc3c(=O)[nH]c(N)nc32)C(CC(=O)O)S1 (single isomer, unassigned) [Example 12-P3] | 42 µM | 
14 | Nc1nc2c(sc(=O)n2C2OC([C@@H](O)C3CC3)SC2CC(=O)O)c(=O)[nH]1 (single isomer, unassigned) [Example 14-P3] | 10 µM | 
15 | COC(=O)CC1SC([C@H](C)O)OC1n1c(=O)sc2c(=O)[nH]c(N)nc21 (single isomer, unassigned) [Example 9-P3] | 22 µM | 
16 | CC[C@H](O)[C@H]1O[C@@H](n2c(=O)sc3c(=O)[nH]c(N)nc32)[C@H](CC(=O)OC)S1 [Example 4-P1, methyl 2-[(2S,4S,5R)-5-(5-amino-2,7-dioxo-6H-thiazolo[4,5-d]pyrimidin-3-yl)-2-[(1S)-1-hydroxypropyl]-1,3-oxathiolan-4-yl]acetate] | 13 µM | 
